Laboratory results published in patent US9296704B2, “Substituted pyrimidines as protein kinase inhibitors” (CELGENE AVILOMICS RESEARCH, INC., priority 2007, dated 2016).

Key:
JAK3 = molecular target: T1, JAK3 (Homo sapiens, UniProt P52333); experiment: Omnia assay for potency against JAK3; format: biochemical; conditions: read-out: JAK3 Inhibition
T1 sequence (P52333 1-1124): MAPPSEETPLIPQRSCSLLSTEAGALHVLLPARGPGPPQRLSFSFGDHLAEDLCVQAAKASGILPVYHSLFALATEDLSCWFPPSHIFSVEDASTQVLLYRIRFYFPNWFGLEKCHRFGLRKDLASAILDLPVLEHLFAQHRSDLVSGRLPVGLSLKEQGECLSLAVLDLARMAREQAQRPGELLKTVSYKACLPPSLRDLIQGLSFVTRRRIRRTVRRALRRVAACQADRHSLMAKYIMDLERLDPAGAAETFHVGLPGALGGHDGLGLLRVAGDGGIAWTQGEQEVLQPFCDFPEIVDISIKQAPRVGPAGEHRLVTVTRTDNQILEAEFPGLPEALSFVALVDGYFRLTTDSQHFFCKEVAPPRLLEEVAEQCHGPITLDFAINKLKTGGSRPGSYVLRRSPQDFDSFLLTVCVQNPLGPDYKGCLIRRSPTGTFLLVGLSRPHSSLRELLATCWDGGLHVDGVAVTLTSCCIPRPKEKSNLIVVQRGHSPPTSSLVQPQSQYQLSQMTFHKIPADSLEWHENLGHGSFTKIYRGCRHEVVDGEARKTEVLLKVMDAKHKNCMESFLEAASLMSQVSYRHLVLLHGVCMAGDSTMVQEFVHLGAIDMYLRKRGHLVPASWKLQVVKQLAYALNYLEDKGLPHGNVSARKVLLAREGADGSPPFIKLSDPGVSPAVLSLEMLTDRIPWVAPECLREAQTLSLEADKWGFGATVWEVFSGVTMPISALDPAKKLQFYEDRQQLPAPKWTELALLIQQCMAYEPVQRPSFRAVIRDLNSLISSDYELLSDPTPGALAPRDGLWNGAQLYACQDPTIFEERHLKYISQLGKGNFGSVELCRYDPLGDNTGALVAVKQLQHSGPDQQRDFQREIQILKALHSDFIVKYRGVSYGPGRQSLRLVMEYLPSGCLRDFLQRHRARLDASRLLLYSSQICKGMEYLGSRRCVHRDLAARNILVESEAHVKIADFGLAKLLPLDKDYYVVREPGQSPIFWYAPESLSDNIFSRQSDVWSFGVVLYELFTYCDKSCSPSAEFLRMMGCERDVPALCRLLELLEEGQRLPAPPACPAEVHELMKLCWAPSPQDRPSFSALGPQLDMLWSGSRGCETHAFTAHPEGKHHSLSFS
From the text: (§1) The protocol below describes continuous-read kinase assays to measure inherent potency of compounds against active forms of EGFR (WT) and EGFR (T790M/L858R) enzymes. The mechanics of the assay platform are best described by the vendor (Invitrogen, Carlsbad, Calif.) on their website at the following URL: http://www.invitrogen.com/content.cfm?pageid=11338 or http://www.invitrogen.com/site/us/en/home/Products-and-Services/Applications/Drug-Discovery/Target-and-Lead-Identification-and-Validation/KinaseBiology/KB-Misc/Biochemical-Assays/Omnia-Kinase-Assays.html.
(§2) Briefly, 10× stocks of EGFR-WT (PV3872) from Invitrogen and EGFR-T790M/L858R (40350) from BPS Bioscience, San Diego, Calif., 1.13×ATP (AS001A) and appropriate Tyr-Sox conjugated peptide substrates (KCZI001) were prepared in 1× kinase reaction buffer consisting of 20 mM Tris, pH 7.5, 5 mM MgCl2, 1 mM EGTA, 5 mM β-glycerophosphate, 5% glycerol (10× stock, KB002A) and 0.2 mM DTT (DS001A). 5 μL of each enzyme were pre-incubated in a Corning (#3574) 384-well, white, non-binding surface microtiter plate (Corning, NY) for 30 min. at 27° C. with a 0.5 μL volume of 50% DMSO and serially diluted compounds prepared in 50% DMSO. Kinase reactions were started with the addition of 45 μL of the ATP/Tyr-Sox peptide substrate mix and monitored every 30-90 seconds for 60 minutes at λex360/λem485 in a Synergy^4 plate reader from BioTek (Winooski, Vt.). At the conclusion of each assay, progress curves from each well were examined for linear reaction kinetics and fit statistics (R^2, 95% confidence interval, absolute sum of squares). Initial velocity (0 minutes to ˜30 minutes) from each reaction was determined from the slope of a plot of relative fluorescence units vs time (minutes) and then plotted against inhibitor concentration to estimate IC50 from log [Inhibitor] vs Response, Variable Slope model in GraphPad Prism from GraphPad Software (San Diego, Calif.).
The Omnia Assay Protocol for potency assessment against JAK3 is performed in a substantially similar manner as that described in Example 25 above except that the modified JAK3-optimized reagent conditions are: • [JAK3]=5 nM, [ATP]=5 μM, [Y12-Sox]=5 μM (ATP KMapp ˜[…]).

EGFR (T790M/L858R) = molecular target: T2, EGFR (T790M/L858R) (Homo sapiens, UniProt P00533, L858R/T790M); experiment: Omnia continuous-read kinase assay, EGFR (T790M/L858R); format: biochemical; conditions: read-out: EGFR (T790M/L858R) inhibiton
T2 construct: purchased BPS Bioscience 40350
T2 sequence (P00533 25-1210 T790M/L858R): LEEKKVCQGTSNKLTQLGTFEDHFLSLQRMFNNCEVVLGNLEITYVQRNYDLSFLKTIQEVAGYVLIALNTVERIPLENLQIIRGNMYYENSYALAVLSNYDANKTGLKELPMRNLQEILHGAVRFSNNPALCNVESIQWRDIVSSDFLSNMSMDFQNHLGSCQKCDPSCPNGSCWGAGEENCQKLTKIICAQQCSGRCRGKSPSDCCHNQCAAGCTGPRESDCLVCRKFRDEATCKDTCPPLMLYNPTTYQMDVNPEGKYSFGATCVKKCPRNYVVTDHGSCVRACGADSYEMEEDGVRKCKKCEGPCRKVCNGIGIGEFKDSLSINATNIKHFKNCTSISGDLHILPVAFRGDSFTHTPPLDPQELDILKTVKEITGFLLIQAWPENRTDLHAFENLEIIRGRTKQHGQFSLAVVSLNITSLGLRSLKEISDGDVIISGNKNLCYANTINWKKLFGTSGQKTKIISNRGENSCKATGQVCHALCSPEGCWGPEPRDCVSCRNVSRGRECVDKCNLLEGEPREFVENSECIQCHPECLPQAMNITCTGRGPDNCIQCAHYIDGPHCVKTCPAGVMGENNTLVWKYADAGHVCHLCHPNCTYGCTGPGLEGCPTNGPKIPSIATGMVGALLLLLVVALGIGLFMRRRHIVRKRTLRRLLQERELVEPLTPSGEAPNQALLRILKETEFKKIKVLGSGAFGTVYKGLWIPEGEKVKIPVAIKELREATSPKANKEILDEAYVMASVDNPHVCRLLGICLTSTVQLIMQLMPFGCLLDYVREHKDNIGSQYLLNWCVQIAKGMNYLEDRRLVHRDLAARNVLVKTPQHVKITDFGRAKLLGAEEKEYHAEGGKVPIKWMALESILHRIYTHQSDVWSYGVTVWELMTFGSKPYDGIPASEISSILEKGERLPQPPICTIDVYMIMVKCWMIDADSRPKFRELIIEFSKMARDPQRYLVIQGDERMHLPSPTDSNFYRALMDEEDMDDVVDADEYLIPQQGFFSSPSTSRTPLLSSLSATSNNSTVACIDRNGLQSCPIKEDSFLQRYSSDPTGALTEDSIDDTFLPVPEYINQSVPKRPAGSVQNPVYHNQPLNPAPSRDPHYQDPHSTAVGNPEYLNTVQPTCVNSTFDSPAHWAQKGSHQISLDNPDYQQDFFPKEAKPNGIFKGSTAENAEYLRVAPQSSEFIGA
From the text: as §1, §2
(§3) The EGFR-WT- and EGFR T790M/L858R-modified optimized reagent conditions are: • [EGFR-WT]=5 nM, [ATP]=[…], [Y12-Sox]=[…]; and [EGFR-T790M/L858R]=3 nM, [ATP]=[…], [Y12-Sox]=[…].

EGFR (WT) = molecular target: T3, EGFR (WT) (Homo sapiens, UniProt P00533); experiment: Omnia continuous-read kinase assay, EGFR (WT); format: biochemical; conditions: read-out: EGFR inhibtion
T3 construct: purchased Invitrogen PV3872
T3 sequence (P00533 25-1210): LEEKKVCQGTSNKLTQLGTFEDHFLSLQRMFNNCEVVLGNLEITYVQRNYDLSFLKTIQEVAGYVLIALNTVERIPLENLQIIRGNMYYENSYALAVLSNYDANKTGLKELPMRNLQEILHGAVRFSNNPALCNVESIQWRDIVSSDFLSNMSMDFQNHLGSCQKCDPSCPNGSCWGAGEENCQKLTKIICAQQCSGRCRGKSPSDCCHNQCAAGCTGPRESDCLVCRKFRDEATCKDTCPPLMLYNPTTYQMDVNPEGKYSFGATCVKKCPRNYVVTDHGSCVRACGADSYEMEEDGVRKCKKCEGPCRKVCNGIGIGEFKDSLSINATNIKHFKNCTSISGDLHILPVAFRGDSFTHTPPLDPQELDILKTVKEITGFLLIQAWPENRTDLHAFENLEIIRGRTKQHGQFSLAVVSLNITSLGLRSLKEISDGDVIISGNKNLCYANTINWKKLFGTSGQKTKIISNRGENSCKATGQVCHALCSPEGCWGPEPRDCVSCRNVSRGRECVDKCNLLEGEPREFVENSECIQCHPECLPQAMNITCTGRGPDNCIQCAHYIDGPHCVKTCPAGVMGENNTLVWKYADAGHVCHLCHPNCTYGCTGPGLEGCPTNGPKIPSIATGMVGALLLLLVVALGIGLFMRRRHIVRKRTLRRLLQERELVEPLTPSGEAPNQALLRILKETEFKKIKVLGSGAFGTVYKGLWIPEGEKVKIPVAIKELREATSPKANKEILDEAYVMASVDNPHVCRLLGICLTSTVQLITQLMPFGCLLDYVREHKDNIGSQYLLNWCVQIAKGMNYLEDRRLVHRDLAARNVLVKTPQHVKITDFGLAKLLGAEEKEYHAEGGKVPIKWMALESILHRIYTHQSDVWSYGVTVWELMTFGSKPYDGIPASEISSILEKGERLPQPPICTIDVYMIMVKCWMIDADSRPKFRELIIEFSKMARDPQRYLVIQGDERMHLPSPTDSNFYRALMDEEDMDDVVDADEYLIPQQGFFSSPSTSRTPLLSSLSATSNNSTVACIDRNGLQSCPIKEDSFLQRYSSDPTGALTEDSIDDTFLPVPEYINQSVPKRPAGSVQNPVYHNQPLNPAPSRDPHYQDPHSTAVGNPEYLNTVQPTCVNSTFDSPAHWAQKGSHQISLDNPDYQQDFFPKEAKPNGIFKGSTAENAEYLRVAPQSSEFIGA
From the text: as §1, §2, §3

ErbB1 = ErbB1 (Homo sapiens, UniProt P00533); experiment: Z'-LYTE biochemical assay, ErbB1 kinase inhibition; conditions: @ 1 μM
ErbB1, sequence (P00533 25-1210): as above
Description: Compounds of the present invention were assayed as inhibitors of one or more of ErbB1, ErbB2, and/or ErbB4 in a manner substantially similar to the method described by Invitrogen Corp (Invitrogen Corporation, 1600 Faraday Avenue, Carlsbad, Calif., CA; http://www.invitrogen.com/downloads/Z-LYTE_Brochure—1205.pdf) using the Z′-LYTE™ biochemical assay procedure or similar biochemical assay. The Z′-LYTE™ biochemical assay employs a fluorescence-based, coupled-enzyme format and is based on the differential sensitivity of phosphorylated and non-phosphorylated peptides to proteolytic cleavage.

BTK = BTK (Homo sapiens, UniProt Q06187); experiment: Omnia assay for potency against BTK; format: biochemical; conditions: read-out: BTK Inhibition
BTK, sequence (Q06187 whole entry): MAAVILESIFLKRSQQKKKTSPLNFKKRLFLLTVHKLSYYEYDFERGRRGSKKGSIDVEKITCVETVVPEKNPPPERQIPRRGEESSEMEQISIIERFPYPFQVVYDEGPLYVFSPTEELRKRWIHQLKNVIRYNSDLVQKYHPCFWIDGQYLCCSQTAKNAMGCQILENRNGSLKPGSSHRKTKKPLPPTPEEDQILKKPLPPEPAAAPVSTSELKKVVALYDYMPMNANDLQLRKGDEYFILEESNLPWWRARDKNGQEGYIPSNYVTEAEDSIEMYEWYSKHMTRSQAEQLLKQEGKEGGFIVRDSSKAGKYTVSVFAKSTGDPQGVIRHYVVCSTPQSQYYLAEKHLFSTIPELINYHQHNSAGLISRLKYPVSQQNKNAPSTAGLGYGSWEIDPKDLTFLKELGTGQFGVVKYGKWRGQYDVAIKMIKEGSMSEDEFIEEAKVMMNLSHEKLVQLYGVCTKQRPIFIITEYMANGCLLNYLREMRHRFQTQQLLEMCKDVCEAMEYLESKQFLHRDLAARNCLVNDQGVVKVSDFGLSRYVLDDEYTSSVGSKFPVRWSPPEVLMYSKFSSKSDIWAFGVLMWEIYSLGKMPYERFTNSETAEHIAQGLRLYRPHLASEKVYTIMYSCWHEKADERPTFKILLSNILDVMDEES
From the text: as §1, §2
The Omnia Assay Protocol for potency assessment against BTK is performed in a substantially similar manner as that described in Example 25 above except that the modified BTK-optimized reagent conditions are: • [BTK]=5 nM, [ATP]=[…], [Y5-Sox]=[…] (ATP KMapp ˜[…]).

| SMILES | IC50 (JAK3) [nM] | IC50 (EGFR (T790M/L858R)) [nM] | IC50 (EGFR (WT)) [nM] | inhibition at 1 µM (ErbB1) [%] | IC50 (BTK) [nM] |
| --- | --- | --- | --- | --- | --- |
| C#Cc1cccc(Nc2cc(Nc3cccc(C#C)c3)ncn2)c1 [I-11, N^4,N^6-bis(3-ethynylphenyl)pyrimidine-4,6-diamine] | ≥ 10000 | ≥ 10000 | 10 to 100 | 79 | ≥ 10000 |
| C#Cc1cccc(Nc2cc(Nc3cccc(Br)c3)ncn2)c1 [I-12, N^4-(3-Bromophenyl)-N^6-(3-ethynylphenyl)pyrimidine-4,6-diamine] | ≥ 10000 | ≥ 10000 | 10 to 100 | 82 | ≥ 10000 |
| CN(C)C/C=C/C(=O)Nc1cccc(Nc2cc(Nc3ccc(OCc4cccc(F)c4)c(Cl)c3)ncn2)c1 [I-46] | 1000 to 10000 | ≤ 10 | ≤ 10 | – | 100 to 1000 |
| N#CC1(C(=O)Nc2cccc(Nc3cc(Nc4ccc(F)c(Cl)c4)ncn3)c2)CC1 [I-47, N-[3-(6-{3-chloro-4-fluorophenylamino}pyrimidin-4-yl)amino]phenyl-1-cyanocyclopropanecarboxamide] | ≥ 10000 | ≥ 10000 | ≤ 10 | – | ≥ 10000 |
| CN(C)C/C=C/C(=O)N(C)c1cccc(Nc2cc(Nc3ccc(F)c(Cl)c3)ncn2)c1 [I-48] | ≥ 10000 | 100 to 1000 | 100 to 1000 | – | 10 to 100 |
| O=C(CCl)Nc1cccc(Nc2cc(Nc3ccc(F)c(Cl)c3)ncn2)c1 [I-49, 2-chloro-N-{3-[6-(3-chloro-4-fluorophenylamino)-pyrimidin-4-ylamino]-phenyl}-acetamide] | ≤ 10 | ≤ 10 | ≤ 10 | – | ≤ 10 |
| O=C(Nc1cccc(Nc2cc(Nc3ccc(F)c(Cl)c3)ncn2)c1)C1(C(F)(F)F)CC1 [I-51, N-[3-(6-{3-chloro-4-fluorophenyl}aminopyrimidin-4-yl)aminophenyl]-1-trifluoromethylcyclopropanecarboxamide] | ≥ 10000 | 1000 to 10000 | ≤ 10 | – | ≥ 10000 |
| C=CC(=O)N(C)c1cccc(Nc2cc(Nc3ccc(F)c(Cl)c3)ncn2)c1 [I-53, N-3-[6-(3-chloro-4-fluorophenylamino)pyrimidin-4-yl]aminophenyl-N-methyl-2-propenamide] | 100 to 1000 | 100 to 1000 | 10 to 100 | – | 10 to 100 |
| Cc1ccc(NC(=O)/C=C/CN(C)C)cc1Nc1cc(Nc2ccc(F)c(Cl)c2)ncn1 [I-54, (E)-N-[3-(6-{3-Chloro-4-fluorophenyl}amino-pyrimidin-4-ylamino)-4-methylphenyl]-4-(dimethylamino)but-2-enamide] | 1000 to 10000 | ≤ 10 | ≤ 10 | – | 100 to 1000 |
| C=CC(=O)Nc1cccc(Nc2cc(Nc3ccc(Br)cc3F)ncn2)c1 [I-55] | 10 to 100 | ≤ 10 | ≤ 10 | – | 10 to 100 |
| O=C(/C=C/CN1CCCC1)Nc1cccc(Nc2cc(Nc3ccc(F)c(Cl)c3)ncn2)c1 [I-56] | 10 to 100 | ≤ 10 | ≤ 10 | – | 10 to 100 |
| Cc1cccc(Nc2cc(Nc3cccc(NC(=O)/C=C/CN4CCNCC4)c3)ncn2)c1 [I-57, (E)-N-3-(6-[3-methylphenyl]aminopyrimidin-4-yl)aminophenyl-4-piperazinyl-2-butenamide] | ≥ 10000 | 100 to 1000 | – | – | 1000 to 10000 |
| C#CCN(C)C/C=C/C(=O)Nc1cccc(Nc2cc(Nc3cccc(C)c3)ncn2)c1 [I-58, (E)-N-3-(6-[3-methylphenyl]aminopyrimidin-4-yl)aminophenyl-4-(methyl-prop-2-ynyl)amino-2-butenamide] | 100 to 1000 | 100 to 1000 | – | – | 1000 to 10000 |
| COc1ccc(NC(=O)/C=C/CN(C)C)cc1Nc1cc(Nc2ccc(F)c(Cl)c2)ncn1 [I-59] | 1000 to 10000 | ≤ 10 | ≤ 10 | – | 100 to 1000 |
| CC(=O)N1CCN(C/C=C/C(=O)Nc2cccc(Nc3cc(Nc4cccc(C)c4)ncn3)c2)CC1 [I-60, (E)-N-3-(6-[3-methylphenylamino]-pyrimidin-4-yl)aminophenyl-4-(4-acetylpiperazin-1yl)-2-butenamide] | 1000 to 10000 | 100 to 1000 | 1000 to 10000 | – | 1000 to 10000 |
| [2H]C([2H])([2H])N(C/C=C/C(=O)Nc1cccc(Nc2cc(Nc3ccc(F)c(Cl)c3)ncn2)c1)C([2H])([2H])[2H] [I-61] | 10 to 100 | ≤ 10 | – | – | 10 to 100 |
| C=CC(=O)Nc1cccc(Nc2cc(Nc3ccccc3)ncn2)c1 [I-67, N-3-[6-(phenylamino)-pyrimidin-4-yl]aminophenylpropenamide] | ≤ 10 | ≤ 10 | ≤ 10 | – | 10 to 100 |
